In patent US9365522B2, “Pyrazole amide derivative” (AMGEN INC., priority 2015, dated 2016):

Target: T1, ligand binding domain of human ROR gamma (Homo sapiens, UniProt P51449)
T1 construct: NM_001001523; expressed in transfected cells; host or cells: HEK293T
T1 sequence (P51449 247-497 isoform P51449-2): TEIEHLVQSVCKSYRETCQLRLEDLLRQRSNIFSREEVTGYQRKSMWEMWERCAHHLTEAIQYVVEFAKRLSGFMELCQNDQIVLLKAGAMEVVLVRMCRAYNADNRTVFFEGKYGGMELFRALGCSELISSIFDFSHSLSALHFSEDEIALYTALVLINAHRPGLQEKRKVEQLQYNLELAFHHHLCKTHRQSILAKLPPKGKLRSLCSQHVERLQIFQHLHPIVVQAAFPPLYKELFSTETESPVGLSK
Assay: ROR gamma reporter gene assay (GAL4-RORγ LBD luciferase, Dual-Glo)
Type: cell-based
Details: HEK293T cells transfected with pM-ROR gamma, 8 concentrations 3.5 nM to 10.5 μM, 24 h incubation; read-out: result (pIC50, inhibition of RORγ transcriptional activity) (converted)
Method in brief: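 HEK293T cells co-transfected with GAL4-DBD fused to human RORγ LBD (aa 247-497), 5×UAS firefly luciferase reporter and CMV-renilla, in charcoal-stripped serum.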

SMILES: CC(C)(C)OCCN(CC(=O)c1c(Cl)cc(C(F)(F)F)cc1Cl)C(=O)c1cnn([C@H]2CC[C@](C)(C(=O)O)CC2)c1C(F)(F)F [Example 149, trans-4-(4-((2-(2,6-dichloro-4-(trifluoromethyl)phenyl)-2-oxoethyl)-(2-((2-methylpropan-2-yl)oxy)ethyl)carbamoyl)-5-(trifluoromethyl)pyrazol-1-yl)-1-methylcyclohexane-1-carboxylic acid]
- IC50: 60300 pM

SMILES: O=C(CN(CC1(C(F)(F)F)CC1)C(=O)c1cnn([C@H]2CC[C@H](C(=O)O)CC2)c1C(F)(F)F)c1c(Cl)cncc1Cl [Example 150, trans-4-(4-((2-(3,5-dichloropyridin-4-yl)-2-oxoethyl)-((1-(trifluoromethyl)cyclopropyl)methyl)carbamoyl)-5-(trifluoromethyl)pyrazol-1-yl)cyclohexane-1-carboxylic acid]
- IC50: 53700 pM

SMILES: O=C(CN(Cc1ccnnc1)C(=O)c1cnn([C@H]2CC[C@H](C(=O)O)CC2)c1C(F)(F)F)c1c(Cl)cccc1Cl [Example 151, trans-4-(4-((2-(2,6-dichlorophenyl)-2-oxoethyl)-(pyridazin-4-ylmethyl)carbamoyl)-5-(trifluoromethyl)pyrazol-1-yl)cyclohexane-1-carboxylic acid]
- IC50: 8.13e+06 pM

SMILES: O=C(CN(Cc1cc(F)cc(F)c1)C(=O)c1cnn([C@H]2CC[C@H](C(=O)O)CC2)c1C(F)(F)F)c1ncc(C(F)(F)F)cc1Cl [Example 152, trans-4-(4-((2-(3-chloro-5-(trifluoromethyl)pyridin-2-yl)-2-oxoethyl)-((3,5-difluorophenyl)methyl)carbamoyl)-5-(trifluoromethyl)pyrazol-1-yl)cyclohexane-1-carboxylic acid]
- IC50: 2.82e+06 pM

SMILES: O=C(CN(Cc1cccc(O)c1)C(=O)c1cnn([C@H]2CC[C@H](C(=O)O)CC2)c1C(F)(F)F)c1c(Cl)cncc1Cl [Example 153, trans-4-(4-((2-(3,5-dichloropyridin-4-yl)-2-oxoethyl)-((3-hydroxyphenyl)methyl)carbamoyl)-5-(trifluoromethyl)pyrazol-1-yl)cyclohexane-1-carboxylic acid]
- IC50: 209000 pM

SMILES: CN1CCC(CN(CC(=O)c2c(Cl)cncc2Cl)C(=O)c2cnn([C@H]3CC[C@H](C(=O)O)CC3)c2C(F)(F)F)CC1 [Example 154, trans-4-(4-((2-(3,5-dichloropyridin-4-yl)-2-oxoethyl)-((1-methylpiperidin-4-yl)methyl)carbamoyl)-5-(trifluoromethyl)pyrazol-1-yl)cyclohexane-1-carboxylic acid]
- IC50: > 1e+07 pM

SMILES: CC(C)(C)O[C@H]1C[C@@H](N(CC(=O)c2c(Cl)cncc2Cl)C(=O)c2cnn([C@H]3CC[C@H](C(=O)O)CC3)c2C(F)(F)F)C1 [Example 155, trans-4-(4-((2-(3,5-dichloropyridin-4-yl)-2-oxoethyl)-(3-((2-methylpropan-2-yl)oxy)cyclobutyl)carbamoyl)-5-(trifluoromethyl)pyrazol-1-yl)cyclohexane-1-carboxylic acid]
- IC50: 5.13e+06 pM

SMILES: CC[C@]1(C(=O)O)CC[C@H](n2ncc(C(=O)N(CC(=O)c3c(Cl)cncc3Cl)Cc3cc(F)cc(F)c3)c2C(F)(F)F)CC1 [Example 156, trans-4-(4-((2-(3,5-dichloropyridin-4-yl)-2-oxoethyl)-((3,5-difluorophenyl)methyl)carbamoyl)-5-(trifluoromethyl)pyrazol-1-yl)-1-ethylcyclohexane-1-carboxylic acid]
- IC50: 1.02e+06 pM

SMILES: O=C1CC[C@@H](CN(CC(=O)c2c(Cl)cncc2Cl)C(=O)c2cnn([C@H]3CC[C@H](C(=O)O)CC3)c2C(F)(F)F)N1 [Example 157, trans-4-(4-((2-(3,5-dichloropyridin-4-yl)-2-oxoethyl)-(((2S)-5-oxopyrrolidin-2-yl)methyl)carbamoyl)-5-(trifluoromethyl)pyrazol-1-yl)cyclohexane-1-carboxylic acid]
- IC50: > 1e+07 pM

SMILES: O=C1CC[C@H](CN(CC(=O)c2c(Cl)cncc2Cl)C(=O)c2cnn([C@H]3CC[C@H](C(=O)O)CC3)c2C(F)(F)F)N1 [Example 158, trans-4-(4-((2-(3,5-dichloropyridin-4-yl)-2-oxoethyl)-(((2R)-5-oxopyrrolidin-2-yl)methyl)carbamoyl)-5-(trifluoromethyl)pyrazol-1-yl)cyclohexane-1-carboxylic acid]
- IC50: > 1e+07 pM

SMILES: O=C(CN(Cc1cc(F)cc(F)c1)C(=O)c1cnn([C@H]2CC[C@H](C(=O)O)CC2)c1CO)c1c(Cl)cncc1Cl [Example 159, trans-4-(4-((2-(3,5-dichloropyridin-4-yl)-2-oxoethyl)-((3,5-difluorophenyl)methyl)carbamoyl)-5-(hydroxymethyl)pyrazol-1-yl)cyclohexane-1-carboxylic acid]
- IC50: > 1e+07 pM

SMILES: CC12CCC(CN(CC(=O)c3c(Cl)cncc3Cl)C(=O)c3cnn([C@H]4CC[C@H](C(=O)O)CC4)c3C(F)(F)F)(CC1)O2 [Example 160, trans-4-(4-((2-(3,5-dichloropyridin-4-yl)-2-oxoethyl)-((1-methyl-7-oxabicyclo[2.2.1]heptan-4-yl)methyl)carbamoyl)-5-(trifluoromethyl)pyrazol-1-yl)cyclohexane-1-carboxylic acid]
- IC50: 24500 pM

SMILES: O=C(CN(C(=O)c1cnn([C@H]2CC[C@H](C(=O)O)CC2)c1C(F)(F)F)[C@H]1C[C@@H]1c1ccccc1)c1c(Cl)cncc1Cl [Example 161, trans-4-(4-((2-(3,5-dichloropyridin-4-yl)-2-oxoethyl)-((1S,2R)-2-phenylcyclopropyl)carbamoyl)-5-(trifluoromethyl)pyrazol-1-yl)cyclohexane-1-carboxylic acid]
- IC50: 2.19e+06 pM

SMILES: CC(C)c1c(C(=O)N(CC(=O)c2c(Cl)cncc2Cl)Cc2cc(F)cc(F)c2)cnn1[C@H]1CC[C@H](C(=O)O)CC1 [Example 162, trans-4-(4-((2-(3,5-dichloropyridin-4-yl)-2-oxoethyl)-((3,5-difluorophenyl)methyl)carbamoyl)-5-propan-2-ylpyrazol-1-yl)cyclohexane-1-carboxylic acid]
- IC50: 1.02e+06 pM

SMILES: NCc1c(C(=O)N(CC(=O)c2c(Cl)cncc2Cl)Cc2cc(F)cc(F)c2)cnn1[C@H]1CC[C@H](C(=O)O)CC1 [Example 163, trans-4-(5-(aminomethyl)-4-((2-(3,5-dichloropyridin-4-yl)-2-oxoethyl)-((3,5-difluorophenyl)methyl)carbamoyl)pyrazol-1-yl)cyclohexane-1-carboxylic acid]
- IC50: > 1e+07 pM

SMILES: Cc1c(C(=O)N(CC(=O)c2c(Cl)cncc2Cl)Cc2cc(F)cc(F)c2)cnn1[C@H]1CC[C@H](C(=O)O)CC1 [Example 164, trans-4-(4-((2-(3,5-dichloropyridin-4-yl)-2-oxoethyl)-((3,5-difluorophenyl)methyl)carbamoyl)-5-methylpyrazol-1-yl)cyclohexane-1-carboxylic acid]
- IC50: 1.17e+06 pM

SMILES: O=C(CN(Cc1nc(Cl)cs1)C(=O)c1cnn([C@H]2CC[C@H](C(=O)O)CC2)c1C(F)(F)F)c1c(Cl)cncc1Cl [Example 165, trans-4-(4-((4-chloro-1,3-thiazol-2-yl)methyl-(2-(3,5-dichloropyridin-4-yl)-2-oxoethyl)carbamoyl)-5-(trifluoromethyl)pyrazol-1-yl)cyclohexane-1-carboxylic acid]
- IC50: 1.17e+06 pM

SMILES: O=C(CN(Cc1ccc(F)cc1)C(=O)c1cnn(C23CCC(C(=O)O)(CC2)CC3)c1C(F)(F)F)c1c(Cl)cncc1Cl [Example 166, 4-(4-((2-(3,5-dichloropyridin-4-yl)-2-oxoethyl)-((4-fluorophenyl)methyl)carbamoyl)-5-(trifluoromethyl)pyrazol-1-yl)bicyclo[2.2.2]octane-1-carboxylic acid]
- IC50: 15500 pM

SMILES: O=C(CN(Cc1csc(Cl)n1)C(=O)c1cnn([C@H]2CC[C@H](C(=O)O)CC2)c1C(F)(F)F)c1c(Cl)cncc1Cl [Example 167, trans-4-(4-((2-chloro-1,3-thiazol-4-yl)methyl-(2-(3,5-dichloropyridin-4-yl)-2-oxoethyl)carbamoyl)-5-(trifluoromethyl)pyrazol-1-yl)cyclohexane-1-carboxylic acid]
- IC50: 331000 pM

SMILES: O=C(CN(Cc1ncc(Cl)s1)C(=O)c1cnn([C@H]2CC[C@H](C(=O)O)CC2)c1C(F)(F)F)c1c(Cl)cncc1Cl [Example 168, trans-4-(4-((5-chloro-1,3-thiazol-2-yl)methyl-(2-(3,5-dichloropyridin-4-yl)-2-oxoethyl)carbamoyl)-5-(trifluoromethyl)pyrazol-1-yl)cyclohexane-1-carboxylic acid]
- IC50: 148000 pM

SMILES: CC1(C)CCC(N(CC(=O)c2c(Cl)cncc2Cl)C(=O)c2cnn([C@H]3CC[C@H](C(=O)O)CC3)c2C(F)(F)F)CC1 [Example 169, trans-4-(4-((2-(3,5-dichloropyridin-4-yl)-2-oxoethyl)-(4,4-dimethylcyclohexyl)carbamoyl)-5-(trifluoromethyl)pyrazol-1-yl)cyclohexane-1-carboxylic acid]
- IC50: 40700 pM

SMILES: N#Cc1cccc(CN(CC(=O)c2c(Cl)cncc2Cl)C(=O)c2cnn([C@H]3CC[C@H](C(=O)O)CC3)c2C(F)(F)F)c1 [Example 170, trans-4-(4-((3-cyanophenyl)methyl-(2-(3,5-dichloropyridin-4-yl)-2-oxoethyl)carbamoyl)-5-(trifluoromethyl)pyrazol-1-yl)cyclohexane-1-carboxylic acid]
- IC50: 178000 pM
